# From US20210300940A1 (Merck Patent GmbH, priority 2018, published 2021)
# Structures can show the parent of a compound that is named as a salt.
# Experiments:
# [1] = target: T1, TLR7 (Homo sapiens, UniProt Q9NYK1); assay: HEK/293 TLR7 Cell Assay; format: cell-based; settings: TLR7/NFKb HEK cells, R848 agonist 10 uM final concentration, Steady-Glo readout; read-out: TLR7 potency
# T1 construct: expressed in transfected cells; host or cells: HEK/293 cells carrying TLR7 and an NF-kB luciferase reporter
# T1 sequence (Q9NYK1 27-1049): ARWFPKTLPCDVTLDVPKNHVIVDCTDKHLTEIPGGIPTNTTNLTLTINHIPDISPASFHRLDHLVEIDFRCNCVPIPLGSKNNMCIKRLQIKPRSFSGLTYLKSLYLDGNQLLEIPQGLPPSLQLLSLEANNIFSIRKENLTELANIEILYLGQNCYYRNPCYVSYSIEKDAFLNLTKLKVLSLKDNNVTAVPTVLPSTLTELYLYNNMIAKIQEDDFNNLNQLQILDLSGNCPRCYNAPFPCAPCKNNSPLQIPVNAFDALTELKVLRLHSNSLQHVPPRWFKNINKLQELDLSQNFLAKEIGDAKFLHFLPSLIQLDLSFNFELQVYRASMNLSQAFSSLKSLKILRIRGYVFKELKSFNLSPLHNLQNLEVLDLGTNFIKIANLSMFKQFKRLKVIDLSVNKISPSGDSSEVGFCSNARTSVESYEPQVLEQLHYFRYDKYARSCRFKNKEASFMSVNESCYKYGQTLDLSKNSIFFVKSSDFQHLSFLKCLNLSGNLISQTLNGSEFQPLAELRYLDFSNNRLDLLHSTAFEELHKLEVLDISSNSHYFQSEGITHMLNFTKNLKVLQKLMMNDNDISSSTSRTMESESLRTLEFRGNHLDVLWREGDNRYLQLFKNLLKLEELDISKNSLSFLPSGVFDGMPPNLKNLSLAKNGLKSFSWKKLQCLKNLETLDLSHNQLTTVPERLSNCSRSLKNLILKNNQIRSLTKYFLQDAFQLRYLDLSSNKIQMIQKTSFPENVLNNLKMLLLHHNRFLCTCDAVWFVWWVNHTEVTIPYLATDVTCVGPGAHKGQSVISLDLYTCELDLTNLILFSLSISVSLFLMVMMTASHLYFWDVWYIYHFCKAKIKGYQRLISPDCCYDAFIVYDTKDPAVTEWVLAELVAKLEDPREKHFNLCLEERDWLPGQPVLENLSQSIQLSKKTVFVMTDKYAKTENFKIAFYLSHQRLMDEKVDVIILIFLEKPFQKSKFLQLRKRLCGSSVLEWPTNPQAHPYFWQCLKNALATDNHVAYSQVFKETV
# Procedure, shortened: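 TLR7/NF-κB reporter HEK293 cells, 5000/well, cultured 24 h, then preincubated 30 min with compound before R848 agonist (10 uM final). After 5 h stimulation, Steady-Glo luciferase luminescence read.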
# [2] = target: T2, TLR8 (Homo sapiens, UniProt Q9NR97); assay: HEK/293 TLR8 Cell Assay; format: cell-based; settings: HEK cells, R848 agonist 30 uM final concentration, Steady-Glo readout; read-out: TLR8 potency
# T2 construct: expressed in transfected cells; host or cells: HEK/293 reporter cells (NF-kB luciferase)
# T2 sequence (Q9NR97 27-1041): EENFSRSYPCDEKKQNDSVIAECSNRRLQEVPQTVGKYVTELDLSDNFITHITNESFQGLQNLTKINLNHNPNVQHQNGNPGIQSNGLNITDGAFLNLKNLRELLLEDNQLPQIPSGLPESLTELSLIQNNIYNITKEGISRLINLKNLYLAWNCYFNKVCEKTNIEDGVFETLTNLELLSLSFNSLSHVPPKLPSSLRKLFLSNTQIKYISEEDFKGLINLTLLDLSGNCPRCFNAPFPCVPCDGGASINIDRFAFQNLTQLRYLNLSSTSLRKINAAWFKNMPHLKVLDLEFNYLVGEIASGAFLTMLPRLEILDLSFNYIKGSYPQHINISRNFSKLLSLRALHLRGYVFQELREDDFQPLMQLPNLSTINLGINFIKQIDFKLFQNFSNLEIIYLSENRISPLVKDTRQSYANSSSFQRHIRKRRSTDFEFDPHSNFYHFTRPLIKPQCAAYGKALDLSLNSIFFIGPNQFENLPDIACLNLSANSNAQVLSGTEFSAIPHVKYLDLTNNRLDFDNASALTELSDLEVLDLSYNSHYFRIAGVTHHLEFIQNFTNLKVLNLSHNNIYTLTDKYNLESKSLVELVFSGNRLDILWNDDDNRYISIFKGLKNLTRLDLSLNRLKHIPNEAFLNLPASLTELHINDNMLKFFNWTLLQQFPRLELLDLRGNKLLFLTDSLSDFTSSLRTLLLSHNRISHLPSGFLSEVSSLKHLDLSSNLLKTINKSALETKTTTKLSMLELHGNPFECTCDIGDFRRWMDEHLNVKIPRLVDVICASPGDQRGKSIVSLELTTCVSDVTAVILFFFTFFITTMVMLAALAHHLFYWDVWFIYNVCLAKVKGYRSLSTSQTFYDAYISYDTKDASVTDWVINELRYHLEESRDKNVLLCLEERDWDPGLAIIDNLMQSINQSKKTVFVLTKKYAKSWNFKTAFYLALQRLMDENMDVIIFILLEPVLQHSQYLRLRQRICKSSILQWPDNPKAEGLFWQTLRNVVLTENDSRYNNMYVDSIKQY
IC50 [1] [nM],IC50 [2] [nM],Compound
< 75,< 75,"CONC(=O)CCCN[C@@H]1C[C@H](C)CN(c2ccc(C(F)(F)F)c3nccnc23)C1 [Example 52, N-Methoxy-4-[(3R,5S)-5-methyl-1-(8-trifluoromethyl-quinoxalin-5-yl)-piperidin-3-ylamino]-butyramide]"
> 150,> 150,"N#Cc1ccc(N2C[C@@H](C(=O)NC[C@@H](O)CO)O[C@@H](C(F)(F)F)C2)c2nccnc12 (single isomer, unassigned) [Example 283]"
75 to 150,> 150,"CN1CCC(F)(CNC(=O)[C@@H]2CN(c3ccc(C#N)c4ncccc34)C[C@H](C(F)(F)F)O2)CC1 (single isomer, unassigned) [Example 354]"
< 75,75 to 150,"C[C@@H]1CN(c2cnc(C#N)c3ncccc23)C[C@H](C(=O)NC[C@H]2CCCN2C)O1 [Example 276, (2R,6R)-4-(8-Cyano-[1,7]naphthyridin-5-yl)-6-methyl-morpholine-2-carboxylic acid ((R)-1-methyl-pyrrolidin-2-ylmethyl)-amide]"
< 75,< 75,"CC(C(=O)N[C@@H]1C[C@H](C)CN(c2ccc(C(F)(F)F)c3ncccc23)C1)N1CCC(O)CC1 (single isomer, unassigned) [Example 104]"
> 150,> 150,"CC(=O)N1CCC(NC[C@H]2CN(c3cnc(C#N)c4ncccc34)C[C@@H](C)O2)CC1 [Example 381, 5-{(2S,6R)-2-[(1-Acetyl-piperidin-4-ylamino)-methyl]-6-methyl-morpholin-4-yl}-[1,7]naphthyridine-8-carbonitrile]"
< 75,< 75,"C[C@@H]1CN(c2cnc(C#N)c3ncccc23)C[C@H](C(=O)NCC2CCCN2C)O1 (stereo partly drawn) [Example 273, (2R,6R)-4-(8-Cyano-[1,7]naphthyridin-5-yl)-6-methyl-morpholine-2-carboxylic acid (1-methyl-pyrrolidin-2-ylmethyl)-amide]"
75 to 150,< 75,"C[C@H]1C[C@@H](NC(=O)CCC2CCN(C)CC2)CN(c2cnc(C#N)c3nccnc23)C1 [Example 189, N-[(3R,5S)-1-(5-Cyano-pyrido[3,4-b]pyrazin-8-yl)-5-methyl-piperidin-3-yl]-3-(1-methyl-piperidin-4-yl)-propionamide]"
> 150,> 150,"CN1CC[C@@](F)(CNC(=O)[C@H]2CN(c3cnc(C#N)c4ncccc34)C[C@@H](C(F)(F)F)O2)C1 (single isomer, unassigned) [Example 350]"
75 to 150,< 75,"O=C(N[C@@H]1C[C@H](C(F)(F)F)CN(c2ccc(C(F)(F)F)c3ncccc23)C1)[C@@H]1CCCN1 [Example 123, (2S)—N-[(3R,5S)-5-(trifluoromethyl)-1-[8-(trifluoromethyl)quinolin-5-yl]piperidin-3-yl]pyrrolidine-2-carboxamide]"
< 75,< 75,"CN1CCC(F)(CNC(=O)[C@H]2CN(c3ccc(C#N)c4ncccc34)C[C@@H](C(F)(F)F)O2)CC1 (single isomer, unassigned) [Example 353]"
< 75,< 75,"C[C@@H]1C[C@H](NC(=O)C[C@@H]2[C@@H]3C[C@H]2CN(C)C3)CN(c2ccc(C(F)(F)F)c3ncccc23)C1 [Example 107, N-((3S,5R)-5-methyl-1-(8-(trifluoromethyl)quinolin-5-yl)piperidin-3-yl)-2-((1R,5S,6r)-3-methyl-3-azabicyclo[3.1.1]heptan-6-yl)acetamide]"
75 to 150,< 75,"C[C@H]1C[C@@H](NC(=O)[C@@H](N)CC(N)=O)CN(c2ccc(C(F)(F)F)c3nccnc23)C1 [Example 127, (2S)-2-amino-N-[(3R,5S)-5-methyl-1-[8-(trifluoromethyl)quinoxalin-5-yl]piperidin-3-yl]butanediamide]"
> 150,> 150,"Cc1ccc(N2C[C@@H](NC(=O)CC3CCN(C(C)C)CC3)CC(F)(F)C2)c2cccnc12 [Example 111, N—[(S)-5,5-Difluoro-1-(8-methyl-quinolin-5-yl)-piperidin-3-yl]-2-(1-isopropyl-piperidin-4-yl)-acetamide]"

Compound,IC50 [1] [nM],IC50 [2] [nM]
"N#Cc1ccc(N2C[C@@H](C(F)(F)F)O[C@@H](C(=O)NC[C@@]3(F)CCNC3)C2)c2nccnc12 (single isomer, unassigned) [Example 307]",< 75,< 75
"C[C@@H]1CN(c2ccc(C#N)c3nccnc23)C[C@H](C(=O)NCC2(F)CCNCC2)O1 [Example 290, (2R,6R)-4-(8-Cyano-quinoxalin-5-yl)-6-methyl-morpholine-2-carboxylic acid (4-fluoro-piperidin-4-ylmethyl)-amide]",< 75,< 75
"N#Cc1ccc(N2C[C@H](NC(=O)C3CCCNC3)C[C@H](C(F)(F)F)C2)c2cccnc12 (stereo partly drawn) [Example 185, Piperidine-3-carboxylic acid [(3R,5S)-1-(8-cyano-quinolin-5-yl)-5-trifluoromethyl-piperidin-3-yl]-amide]",> 150,75 to 150
"C[C@@H]1CN(c2ccc(C#N)c3nccnc23)C[C@H](C(=O)N[C@H]2CNC[C@H]2F)O1 [Example 294, (2R,6R)-4-(8-Cyano-quinoxalin-5-yl)-6-methyl-morpholine-2-carboxylic acid ((3S,4R)-4-fluoro-pyrrolidin-3-yl)-amide hydrochloride (2)]",< 75,< 75
"C[C@@H]1CN(c2ccc(C#N)c3nccnc23)C[C@H](C(=O)N2CC(N3CC(C)(O)C3)C2)O1 [Example 235, 8-[(2R,6R)-2-(3-Hydroxy-3-methyl-[1,3′]biazetidinyl-1′-carbonyl)-6-methyl-morpholin-4-yl]-quinoxaline-5-carbonitrile]",75 to 150,75 to 150
"CN1CCC(C(=O)N[C@@H]2C[C@H](C(F)(F)F)CN(c3ccc(C#N)c4ncccc34)C2)CC1 [Example 61, 1-Methyl-piperidine-4-carboxylic acid [(3R,5S)-1-(8-cyano-quinolin-5-yl)-5-trifluoromethyl-piperidin-3-yl]-amide]",< 75,< 75
"C[C@@H]1CN(c2ccc(C#N)c3nccnc23)C[C@H](CSC[C@@H](O)CO)O1 (single isomer, unassigned) [Example 230]",< 75,< 75
"C[C@@H](O)CNC(=O)[C@@H]1CN(c2ccc(C#N)c3nccnc23)C[C@H](C(F)(F)F)O1 (single isomer, unassigned) [Example 279]",75 to 150,> 150
